Measured values published in US20110166196A1, “TREATMENT AND PROPHYLAXIS OF EPILEPSY AND FEBRILE SEIZURES” (priority 2008, published 2011).

Experiments:
[1] = tested on: excitatory synapses onto CA1 hippocampal interneurons; test: Drug-induced depression of EPSC amplitudes, whole-cell recording in hippocampal slices; format: cell-based, rat
Text: (§1) The basic methods have been detailed previously (McMahon and Kauer, 1997). Sprague-Dawley rats (15-22 days old) were used in the majority of experiments. In addition, we used TRPV1^−/− mice (Caterina et al., 2000) and wild-type C57BL/6 mice aged between 15 and 21 days (Jackson Laboratory). The TRPV1^−/− mice we used have been backcrossed at least 10 times onto a C57BL/6 background and were obtained from homozygous breeding pairs. Control mice were therefore not littermates but were age-matched, wild-type C57BL/6 animals received from the same supplier in the same shipment. All animal protocols were approved by the Brown University Institutional Animal Care and Use Committee. For mouse experiments, only one brain slice per mouse was used for each experiment, so that reported ‘n’ numbers represent the number of animals. Animals were anaesthetized using halothane or isoflurane and quickly decapitated. The brain was rapidly removed and 300 μm thick coronal slices prepared and stored for at least one hour submerged on a net in artificial cerebrospinal fluid (ACSF) containing in mM: 119 NaCl, 26 NaHCO3, 2.5 KCl, 1.0 NaH2PO4, 2.5 CaCl2, 1.3 MgSO4 and 11 dextrose, saturated with 95% O2/5% CO2 (pH 7.4). Slices were then transferred to a submerged recording chamber and bathed in oxygenated ACSF (28-32° C.) containing elevated divalent cations to reduce epileptiform activity (4 mM CaCl2 and 4 mM MgCl2, replacing MgSO4). A surgical cut was made between the CA3 and CA1 regions. The storage of slices submerged on a net rather than in an interface chamber on filter paper may be important in maintaining slice health and improving the likelihood of observing LTD.
(§2) Slices were continuously perfused with ACSF warmed to 28-32° C. at a flow rate of 1-2 ml/min. Picrotoxin (100 μM) and D-AP5 (50 μM) were added to block GABAA receptor- and NMDAR-mediated synaptic transmission. Whole-cell patch clamp recordings were made from interneurons identified visually in the CA1 stratum radiatum of the hippocampus. […] Patch pipettes were filled with internal recording solution containing in mM: 117 cesium gluconate, 2.8 NaCl, 5 MgCl2, 20 HEPES, 2 ATP-Na^+, 0.3 GTP-Na^+ and 0.6 EGTA. In some experiments 2 μM capsazepine, 140 nM baicalein, or 250 μM GDPβS were also included in the intracellular patch pipette solution. In experiments with BAPTA-containing patch electrodes, EGTA was omitted from the intracellular solution and 25 or 40 mM BAPTA replaced a corresponding amount of cesium gluconate. EPSCs were stimulated at 0.1 Hz (100 μsec) using a bipolar stainless steel stimulating electrode placed in stratum radiatum at least 200 μm from the recorded cell. CA1 interneurons were voltage clamped at −65 mV (not corrected for the liquid junction potential, of ˜10 mV), and EPSCs were evoked by paired pulses with an interval of 50 msec (stimulus intensity typically 50-400 μA). In early experiments, we measured rectification ratios of EPSCs evoked at +40 mV/−60 mV in the presence of 50 μM D-AP5, measured at the time of peak inward synaptic current seen at −70 mV (Lei and McBain, 2004).
The maximal initial slope of fEPSPs was calculated using a LabVIEW-based program (National Instruments). The peak amplitude of each EPSC was measured by comparing a 10 msec time period immediately prior to the stimulus with the peak of the EPSC using this program as well. Occasionally polysynaptic responses were evoked, and in these cases, only the initial monosynaptic event was measured. To positively identify LTD, EPSCs measured every 10 seconds were averaged in 1 minute intervals. EPSC amplitude values were normalized to control pre-HFS EPSC amplitude values (baseline period of at least 5 minutes prior to HFS) and subjected to analysis of variance (ANOVA) repeated measures analysis with a post-hoc Dunnett's test (GraphPad Prism, Version 4).

TRPV1 receptors = biological target: T1, TRPV1 receptors (Rattus norvegicus, UniProt O35433); test: Capsaicin-evoked inward current (peak change in holding current) in hippocampal neurons; format: cell-based
T1 construct: inward currents were elicited in both CA3 and CA1 pyramidal cells; from tissue; host or cells: acute coronal hippocampal slices: CA1 and CA3 pyramidal cells and CA1 stratum radiatum interneurons
Description: as §2
The maximal initial slope of fEPSPs was calculated using a LabVIEW-based program (National Instruments). The peak amplitude of each EPSC was measured by comparing a 10 msec time period immediately prior to the stimulus with the peak of the EPSC using this program as well. Occasionally polysynaptic responses were evoked, and in these cases, only the initial monosynaptic event was measured. To positively identify LTD, EPSCs measured every 10 seconds were averaged in 1 minute intervals. EPSC amplitude values were normalized to control pre-HFS EPSC amplitude values (baseline period of at least 5 minutes prior to HFS) and subjected to analysis of variance (ANOVA) repeated measures analysis with a post-hoc Dunnett's test (GraphPad Prism, Version 4). […] EPSC amplitude values 15 to 20 minutes post-HFS were compared between control LTD experiments and those carried out either in transgenic TRPV1^−/− mice, or in the presence of drug using a t-test (unpaired, two-tailed, with Welch's correction if the variances between the groups were unequal). To calculate the effects of capsaicin, 12-(S)-HPETE or WIN 55,212-2 application on basal excitatory glutamatergic transmission, normalized EPSC amplitudes or fEPSP slopes were averaged in the final 5 minutes of drug application and compared with EPSCs/EPSPs 5 minutes prior to drug application. […] The n-values reported refer to the number of slices. All combined data are expressed as mean±the standard error of the mean (s.e.m.).

[2] = tested on: excitatory synapses onto CA1 hippocampal interneurons; test: HFS-induced long-term depression (LTD) of EPSCs, whole-cell recording in hippocampal slices; format: cell-based, rat
Text: as §1, §2
High-frequency stimulation was used to induce LTD (HFS; two 1 sec trains at 100 Hz, inter-train interval 20 sec, at 1.5 times test current intensity) with the neuron held in current-clamp mode, so that the HFS trains were delivered with the membrane potential free to vary. Receptor antagonists were added directly to the ACSF at known concentrations for at least 10 minutes prior to HFS. Control experiments were interleaved with those experiments using receptor antagonists or involving slices from TRPVl^−/− mice. The cell input resistance and series resistance were monitored throughout each experiment; cells were discarded if these values changed by more than 10% during the experiment.

TRPV1 channels = biological target: T2, TRPV1 channels (Mus musculus, UniProt Q704Y3); test: TRPV1 agonist-evoked inward current and depolarization in CA1 pyramidal neurons; format: cell-based
T2 construct: whole-cell recordings from acutely prepared brain slices from wild type C57BL/6 mice; from tissue; host or cells: acute coronal hippocampal slices from P14-P20 wild-type C57BL/6 mice: CA1 pyramidal neurons

[3] = capsaicin 3 μM, capsazepine 10 μM, n=5

T1 sequence (O35433 whole entry): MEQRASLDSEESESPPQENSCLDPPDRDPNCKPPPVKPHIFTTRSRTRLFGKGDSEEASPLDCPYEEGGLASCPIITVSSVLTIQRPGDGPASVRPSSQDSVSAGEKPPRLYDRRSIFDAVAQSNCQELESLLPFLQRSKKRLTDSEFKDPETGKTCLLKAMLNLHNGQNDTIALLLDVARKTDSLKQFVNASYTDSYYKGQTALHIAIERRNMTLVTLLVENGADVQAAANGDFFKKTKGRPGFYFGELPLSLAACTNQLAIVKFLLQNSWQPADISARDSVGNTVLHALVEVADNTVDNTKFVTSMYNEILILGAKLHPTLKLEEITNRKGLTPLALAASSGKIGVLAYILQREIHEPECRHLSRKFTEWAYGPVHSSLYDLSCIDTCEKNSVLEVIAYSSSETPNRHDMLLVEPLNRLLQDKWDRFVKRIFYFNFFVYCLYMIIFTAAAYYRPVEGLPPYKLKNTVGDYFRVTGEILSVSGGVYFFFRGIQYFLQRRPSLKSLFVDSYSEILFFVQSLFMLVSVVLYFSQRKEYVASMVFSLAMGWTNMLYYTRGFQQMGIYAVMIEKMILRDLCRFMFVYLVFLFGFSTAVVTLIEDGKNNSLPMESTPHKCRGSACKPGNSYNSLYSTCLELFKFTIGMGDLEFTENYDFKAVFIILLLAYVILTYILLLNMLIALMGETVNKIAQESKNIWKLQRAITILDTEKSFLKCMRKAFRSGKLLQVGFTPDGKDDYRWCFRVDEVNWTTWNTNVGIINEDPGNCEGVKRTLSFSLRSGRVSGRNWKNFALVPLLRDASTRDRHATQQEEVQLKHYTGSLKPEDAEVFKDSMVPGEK
T2 sequence (Q704Y3 whole entry): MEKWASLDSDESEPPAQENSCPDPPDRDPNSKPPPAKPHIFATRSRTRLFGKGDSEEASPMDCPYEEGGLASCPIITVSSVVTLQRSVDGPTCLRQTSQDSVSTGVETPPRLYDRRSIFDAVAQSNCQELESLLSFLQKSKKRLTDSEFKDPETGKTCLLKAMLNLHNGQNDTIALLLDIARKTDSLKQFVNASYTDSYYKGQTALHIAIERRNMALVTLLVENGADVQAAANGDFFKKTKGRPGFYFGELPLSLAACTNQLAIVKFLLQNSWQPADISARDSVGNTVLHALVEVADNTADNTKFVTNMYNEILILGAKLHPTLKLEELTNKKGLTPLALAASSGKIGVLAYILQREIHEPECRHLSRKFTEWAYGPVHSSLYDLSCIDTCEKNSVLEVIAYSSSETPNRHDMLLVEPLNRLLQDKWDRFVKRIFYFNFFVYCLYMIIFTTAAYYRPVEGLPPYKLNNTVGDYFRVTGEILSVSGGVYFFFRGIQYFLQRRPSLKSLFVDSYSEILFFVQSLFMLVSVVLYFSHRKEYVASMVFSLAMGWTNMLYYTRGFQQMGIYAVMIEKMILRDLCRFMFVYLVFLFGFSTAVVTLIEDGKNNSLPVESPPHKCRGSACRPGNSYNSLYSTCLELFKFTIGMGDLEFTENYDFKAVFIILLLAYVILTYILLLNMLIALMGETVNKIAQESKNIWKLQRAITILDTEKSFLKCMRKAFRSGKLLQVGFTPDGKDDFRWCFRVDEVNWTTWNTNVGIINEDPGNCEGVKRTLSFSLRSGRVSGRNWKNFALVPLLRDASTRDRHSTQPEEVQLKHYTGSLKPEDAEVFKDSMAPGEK

Q: `COc1cc(CNC(=O)CCCCC=CC(C)C)ccc1O` [capsaicin, 8-methyl-N-vanillyl-6-nonenamide] was tested. Which “EPSC amplitudes after 10-15 minutes in capsaicin” value ([1]; capsaicin 1 μM bath-applied, n=14) did it give?
A: 73.3±4.6 % of pre-drug control values

Q: What about the “1 μM capsaicin response in interneurons” value (TRPV1 receptors; 1 μM capsaicin, P=0.78 vs pre-drug, n=5) of the same compound?
A: 0.7±0.3 pA

Q: And the “peak capsaicin response in CA3 pyramidal cells (inward current)” value (TRPV1 receptors; 3 μM capsaicin bath application, n=5)?
A: 180.1±48.0 pA

Q: And the “peak capsaicin response in CA1 pyramidal cells (inward current)” value (TRPV1 receptors; 3 μM capsaicin bath application, n=7)?
A: 160.1±55.3 pA

Q: What about the “peak capsaicin response in interneurons (inward current)” value (TRPV1 receptors; 3 μM capsaicin, CA1 stratum radiatum interneurons, n=5) of the same compound?
A: 41.6±16.2 pA

Q: And the “EPSC amplitudes 15-20 minutes post-HFS” value ([2]; HFS after capsaicin 1 μM exposure (occlusion), n=10)?
A: 112.5±21.9 % of control values in capsaicin before HFS

Q: What about the “capsaicin-evoked current in a CA1 neuron” value (TRPV1 channels; capsaicin 3 μM bath-applied) of the same compound?
A: induces inward current

Q: And the “effect on membrane potential of CA1 pyramidal neurons” value (TRPV1 channels; capsaicin 3 μM bath-applied, current-clamp)?
A: significantly depolarized

Q: For `Oc1cc2c(cc1O)CN(C(=S)NCCc1ccc(Cl)cc1)CCC2` [capsazepine], which “EPSC amplitudes after 10-15 minutes in 1 μM capsaicin and in the presence of intracellular capsazepine” value ([1]; capsazepine 2 μM in patch pipette, capsaicin 1 μM bath, n=6) is on record?
A: 46.8±10.3 % of pre-capsaicin control values

Q: And the “EPSC amplitudes after 10-15 minutes in 12-(S)-HPETE and in the presence of capsazepine” value ([1]; capsazepine 10 μM, 12-(S)-HPETE 100 nM, n=6)?
A: 103.0±8.9 % of pre-12-(S)-HPETE control values

Q: And the “Peak capsaicin response in the presence of capsazepine in CA1 interneurons” value (TRPV1 receptors; capsaicin 3 μM, capsazepine 10 μM, P=0.06, n=5)?
A: 0.4±0.2 pA

Q: What about the “Peak capsaicin response in the presence of capsazepine in CA1 pyramidal cells” value (TRPV1 receptors; [3]) of the same compound?
A: 0.1±0.1 pA

Q: What about the “Peak capsaicin response in the presence of capsazepine in CA3 pyramidal cells” value (TRPV1 receptors; [3]) of the same compound?
A: 0.1±0.1 pA

Q: And the “EPSC amplitudes 10-15 minutes after adding capsazepine” value ([2]; 10 μM capsazepine added 10 minutes after HFS (LTD maintenance), n=6)?
A: 50.1±6.1 % of pre-HFS values

Q: And the “EPSC amplitudes 15-20 minutes post-HFS with intracellular capsazepine” value ([2]; capsazepine 2 μM in patch pipette, P=0.20 vs control LTD, n=7)?
A: 47.5±10.3 % of control values before HFS

Q: What about the “EPSC amplitudes 15-20 minutes post-HFS in capsazepine” value ([2]; capsazepine 10 μM bath applied prior to HFS, n=9) of the same compound?
A: 105.6±8.6 % of control values before HFS

Q: What about the “effect on capsaicin-induced depolarization of CA1 pyramidal neurons” value (TRPV1 channels; 2 μM intracellular capsazepine, capsaicin 3 μM, p<0.001) of the same compound?
A: prevented

Q: What about the “capsaicin-evoked current in the presence of capsazepine” value (TRPV1 channels; capsaicin 3 μM plus capsazepine 10 μM) of the same compound?
A: does not induce current

Q: And the “effect on 12-(S)-HPETE-evoked inward current” value (TRPV1 channels; capsazepine 10 μM, 12-(S)-HPETE 100 nM)?
A: blocked
